Counter-ions that a name gives are not always drawn.
Target: mGluR5 receptor (Sus scrofa, UniProt I3LUI7)
Test: Affinity for the mGluR5 receptor: inhibition of 3[H]-MPEP binding in pig brain homogenate
Conditions: for inhibition at 10 µM: 10 μM compound, 5 nM 3[H]-MPEP, read-out: mGluR5 receptor inhibition of ^3[H]-MPEP binding [10 μM] in % at a concentration of the example compounds of 10 μM; for IC50: 3[H]-MPEP binding
In short: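 Pig brain membranes (450 μg protein; hemispheres without medulla, cerebellum and pons) in 30 mM Hepes pH 8.0 were incubated 60 min at room temperature with 5 nM [3H]-MPEP and compound at 10 μM. Bound radioactivity was filtered and counted. Nonspecific binding was defined with 10 μM MPEP.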

mGluR5 receptor, sequence (I3LUI7 19-1212): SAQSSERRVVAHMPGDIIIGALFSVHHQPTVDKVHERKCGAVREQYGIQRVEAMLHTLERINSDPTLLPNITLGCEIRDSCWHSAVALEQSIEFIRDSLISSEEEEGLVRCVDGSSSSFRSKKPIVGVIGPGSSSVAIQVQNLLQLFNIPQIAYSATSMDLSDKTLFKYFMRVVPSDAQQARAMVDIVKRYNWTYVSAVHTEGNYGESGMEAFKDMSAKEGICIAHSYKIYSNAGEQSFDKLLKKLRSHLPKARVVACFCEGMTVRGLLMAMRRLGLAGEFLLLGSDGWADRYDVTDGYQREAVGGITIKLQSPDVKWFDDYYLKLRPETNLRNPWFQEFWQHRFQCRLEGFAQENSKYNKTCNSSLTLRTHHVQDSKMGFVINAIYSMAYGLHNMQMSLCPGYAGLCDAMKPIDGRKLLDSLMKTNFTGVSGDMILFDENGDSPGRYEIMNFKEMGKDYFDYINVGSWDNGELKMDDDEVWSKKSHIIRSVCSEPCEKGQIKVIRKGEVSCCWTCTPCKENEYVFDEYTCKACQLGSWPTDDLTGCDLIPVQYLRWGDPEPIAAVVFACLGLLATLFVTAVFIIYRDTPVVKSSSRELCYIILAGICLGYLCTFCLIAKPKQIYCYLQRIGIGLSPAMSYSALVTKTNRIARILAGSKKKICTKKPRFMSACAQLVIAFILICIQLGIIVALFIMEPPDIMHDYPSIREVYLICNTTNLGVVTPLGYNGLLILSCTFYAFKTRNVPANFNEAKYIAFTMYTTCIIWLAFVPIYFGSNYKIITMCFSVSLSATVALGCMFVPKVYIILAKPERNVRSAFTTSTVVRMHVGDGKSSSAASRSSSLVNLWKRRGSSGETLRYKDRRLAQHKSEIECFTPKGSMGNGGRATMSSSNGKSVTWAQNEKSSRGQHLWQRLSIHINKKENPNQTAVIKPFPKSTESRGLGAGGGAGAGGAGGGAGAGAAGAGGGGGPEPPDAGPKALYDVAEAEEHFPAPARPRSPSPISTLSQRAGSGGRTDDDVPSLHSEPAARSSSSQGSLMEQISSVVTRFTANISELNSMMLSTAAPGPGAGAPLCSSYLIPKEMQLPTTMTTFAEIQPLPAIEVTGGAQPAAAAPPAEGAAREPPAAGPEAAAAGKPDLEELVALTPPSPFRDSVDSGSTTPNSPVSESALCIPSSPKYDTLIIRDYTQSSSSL

inhibition at 10 µM [%] | IC50 [nM] | Structure (SMILES)
88 |  | CC(C)c1ccn2c(NC(C)(C)C)c(-c3ccc(C#Cc4ccccn4)cc3)nc2c1 [Example 307, N-tert-butyl-7-isopropyl-2-(4-(pyridin-2-ylethynyl)phenyl)imidazo[1,2-a]pyridin-3-amine]
70 |  | CC(C)c1ccn2c(NC3CCCCC3)c(-c3ccc(C#Cc4ccccn4)o3)nc2c1 [Example 308, N-cyclohexyl-7-isopropyl-2-(5-(pyridin-2-ylethynyl)furan-2-yl)imidazo[1,2-a]pyridin-3-amine]
82 |  | Cc1cccc(C#Cc2cccc(-c3nc4cc(C(C)C)ccn4c3NC(C)(C)C)c2)n1 [Example 309, N-tert-butyl-7-isopropyl-2-(3-((6-methylpyridin-2-yl)ethynyl)phenyl)imidazo[1,2-a]pyridin-3-amine]
86 |  | Clc1ccc2nc(-c3ccc(C#Cc4ccccn4)s3)c(NC3CCCC3)n2c1 [Example 310, 6-chloro-N-cyclopentyl-2-(5-(pyridin-2-ylethynyl)thiophen-2-yl)imidazo[1,2-a]pyridin-3-amine]
86 |  | CC(C)(C)Nc1c(-c2ccc(C#Cc3ccccn3)s2)nc2ccc(Cl)cn12 [Example 311, N-tert-butyl-6-chloro-2-(5-(pyridin-2-ylethynyl)thiophen-2-yl)imidazo[1,2-a]pyridin-3-amine]
64 |  | Clc1ccc2nc(-c3cccc(C#Cc4ccccn4)c3)c(NC3CCCCC3)n2c1 [Example 312, 6-chloro-N-cyclohexyl-2-(3-(pyridin-2-ylethynyl)phenyl)imidazo[1,2-a]pyridin-3-amine]
33 |  | CC(C)(C)CC(C)(C)Nc1c(-c2cccc(C#Cc3ccccn3)c2)nc2ccc(Cl)cn12 [Example 313, 6-chloro-2-(3-(pyridin-2-ylethynyl)phenyl)-N-(2,4,4-trimethylpentan-2-yl)imidazo[1,2-a]pyridin-3-amine]
79 |  | CC(C)(C)Nc1c(-c2ccc(C#Cc3ccccn3)cc2)nc2ccc(Cl)cn12 [Example 314, N-tert-butyl-6-chloro-2-(4-(pyridin-2-ylethynyl)phenyl)imidazo[1,2-a]pyridin-3-amine]
75 |  | Clc1ccc2nc(-c3ccc(C#Cc4ccccn4)cc3)c(NC3CCCCC3)n2c1 [Example 315, 6-chloro-N-cyclohexyl-2-(4-(pyridin-2-ylethynyl)phenyl)imidazo[1,2-a]pyridin-3-amine]
55 |  | CC(C)(C)Nc1c(-c2ccc(C#Cc3ccccn3)o2)nc2ccc(Cl)cn12 [Example 316, N-tert-butyl-6-chloro-2-(5-(pyridin-2-ylethynyl)furan-2-yl)imidazo[1,2-a]pyridin-3-amine]
58 |  | Clc1ccc2nc(-c3ccc(C#Cc4ccccn4)o3)c(NC3CCCCC3)n2c1 [Example 317, 6-chloro-N-cyclohexyl-2-(5-(pyridin-2-ylethynyl)furan-2-yl)imidazo[1,2-a]pyridin-3-amine]
43 |  | CC(C)(C)CC(C)(C)Nc1c(-c2ccc(C#Cc3ccccn3)o2)nc2ccc(Cl)cn12 [Example 318, 6-chloro-2-(5-(pyridin-2-ylethynyl)furan-2-yl)-N-(2,4,4-trimethylpentan-2-yl)imidazo[1,2-a]pyridin-3-amine]
81 |  | Cc1cccc(C#Cc2cccc(-c3nc4ccc(Cl)cn4c3NC3CCCC3)c2)n1 [Example 319, 6-chloro-N-cyclopentyl-2-(3-((6-methylpyridin-2-yl)ethynyl)phenyl)imidazo[1,2-a]pyridin-3-amine]
77 |  | Cc1cccc(C#Cc2cccc(-c3nc4ccc(Cl)cn4c3NC(C)(C)C)c2)n1 [Example 320, N-tert-butyl-6-chloro-2-(3-((6-methylpyridin-2-yl)ethynyl)phenyl)imidazo[1,2-a]pyridin-3-amine]
 | 120 | CNc1c(-c2ccc(C#Cc3ccccn3)s2)nc2cnccn12 [Example 322, N-methyl-2-(5-(pyridin-2-ylethynyl)thiophen-2-yl)imidazo[1,2-a]pyrazin-3-amine]
 | 59 | CC(C)(C)CC(C)(C)Nc1c(-c2ccc(C#Cc3ccccn3)s2)nc2ccccn12 [Example 324, [2-(5-pyridin-2-ylethynyl-thiophen-2-yl)-imidazo[1,2-a]pyridin-3-yl]-(1,1,3,3-tetramethyl-butyl)-amine]
 | 13 | CC(C)(C)Nc1c(-c2ccc(C#Cc3ncccn3)s2)nc2ccccn12 [Example 325, tert-butyl-[2-(5-pyrimidin-2-ylethynyl-thiophen-2-yl)-imidazo[1,2-a]pyridin-3-yl]-amine hydrochloride]
 | 39 | CC(C)(C)Nc1c(-c2ccc(C#Cc3ncccc3N)s2)nc2ccccn12 [Example 326, {2-[5-(3-amino-pyridin-2-ylethynyl)-thiophen-2-yl]-imidazo[1,2-a]pyridin-3-yl}-tert-butyl-amine]

inhibition at 10 µM [%] | IC50 [nM] | Structure (SMILES)
 | 14 | CC(C)(C)Nc1c(-c2ccc(C#Cc3nccs3)s2)nc2ccccn12 [Example 332, tert-butyl-[2-(5-thiazol-2-ylethynyl-thiophen-2-yl)-imidazo[1,2-a]pyridin-3-yl]-amine hydrochloride]
 | 420 | CC(C)(C)Nc1c(-c2ccc(C#Cc3cccc(OC(F)(F)F)c3)s2)nc2cnccn12 [Example 333, tert-butyl-{2-[5-(3-trifluoromethoxy-phenylethynyl)-thiophen-2-yl]-imidazo[1,2-a]pyrazin-3-yl}-amine]
 | 10000 | CC(C)(C)Nc1c(-c2ccc(C#Cc3cccc(C4OCCO4)c3)s2)nc2ccccn12 [Example 334, tert-butyl-{2-[5-(3-[1,3]dioxolan-2-yl-phenylethynyl)-thiophen-2-yl]-imidazo[1,2-a]pyridin-3-yl}-amine]
 | 6.1 | CC(C)(C)Nc1c(-c2ccc(C#Cc3ncccc3F)s2)nc2ccccn12 [Example 336, tert-butyl-{2-[5-(3-fluoro-pyridin-2-ylethynyl)-thiophen-2-yl]-imidazo[1,2-a]pyridin-3-yl}-amine hydrochloride]
 | 6260 | Cn1cncc1C#Cc1ccc(-c2nc3ccccn3c2NC(C)(C)C)s1 [Example 337, tert-butyl-{2-[5-(3-methyl-3H-imidazol-4-ylethynyl)-thiophen-2-yl]-imidazo[1,2-a]pyridin-3-yl}-amine hydrochloride]
52 |  | CC(C)(C)Nc1c(-c2ccc(C#Cc3ccc(Cl)s3)s2)nc2ccccn12 [Example 338, tert-butyl-{2-[5-(5-chloro-thiophen-2-ylethynyl)-thiophen-2-yl]-imidazo[1,2-a]pyridin-3-yl}-amine hydrochloride]
 | 320 | Cc1ccc(C#Cc2ccc(-c3nc4ccccn4c3NC(C)(C)C)s2)nc1 [Example 339, tert-butyl-{2-[5-(5-methyl-pyridin-2-ylethynyl)-thiophen-2-yl]-imidazo[1,2-a]pyridin-3-yl}-amine hydrochloride]
 | 620 | CC(=O)c1cccc(C#Cc2ccc(-c3nc4ccccn4c3NC(C)(C)C)s2)c1 [Example 340, 1-{3-[5-(3-tert-butylamino-imidazo[1,2-a]pyridin-2-yl)-thiophen-2-ylethynyl]-phenyl}-ethanone hydrochloride]
 | 240 | CC(C)(C)Nc1c(-c2ccc(C#Cc3cccc(CO)c3)s2)nc2ccccn12 [Example 341, {3-[5-(3-tert-butylamino-imidazo[1,2-a]pyridin-2-yl)-thiophen-2-ylethynyl]-phenyl}-methanol hydrochloride]
 | 1360 | COc1cccnc1C#Cc1ccc(-c2nc3ccccn3c2NC(C)(C)C)s1 [Example 342, N-tert-butyl-2-(5-((3-methoxypyridin-2-yl)ethynyl)thiophen-2-yl)imidazo[1,2-a]pyridin-3-amine]
 | 93 | CC(C)(C)Nc1c(-c2ccc(C#Cc3cccs3)s2)nc2ccccn12 [Example 343, N-tert-butyl-2-(5-(thiophen-2-ylethynyl)thiophen-2-yl)imidazo[1,2-a]pyridin-3-amine hydrochloride]
 | 170 | CC(C)(C)Nc1c(-c2ccc(C#Cc3ccc(F)c(C#N)c3)s2)nc2ccccn12 [Example 344, 5-((5-(3-(tert-butylamino)imidazo[1,2-a]pyridin-2-yl)thiophen-2-yl)ethynyl)-2-fluorobenzonitrile hydrochloride]
 | 670 | COCc1cccc(C#Cc2ccc(-c3nc4ccccn4c3NC(C)(C)C)s2)c1 [Example 346, N-tert-butyl-2-(5-((3-(methoxymethyl)phenyl)ethynyl)thiophen-2-yl)imidazo[1,2-a]pyridin-3-amine]
 | 920 | CC(C)(C)Nc1c(-c2ccc(C#Cc3cccc(N)c3)s2)nc2ccccn12 [Example 347, 2-(5-((3-aminophenyl)ethynyl)thiophen-2-yl)-N-tert-butylimidazo[1,2-a]pyridin-3-amine hydrochloride]
44 |  | Cc1cc(C#Cc2ccc(-c3nc4ccccn4c3NC(C)(C)C)s2)ccc1F [Example 348, N-tert-butyl-2-(5-((4-fluoro-3-methylphenyl)ethynyl)thiophen-2-yl)imidazo[1,2-a]pyridin-3-amine hydrochloride]
39 |  | CC(C)(C)Nc1c(-c2ccc(C#Cc3cc(F)cc(F)c3)s2)nc2ccccn12 [Example 349, N-tert-butyl-2-(5-((3,5-difluorophenyl)ethynyl)thiophen-2-yl)imidazo[1,2-a]pyridin-3-amine]
 | 570 | CC(C)(C)Nc1c(-c2ccc(C#Cc3ccsc3)s2)nc2ccccn12 [Example 350, N-tert-butyl-2-(5-(thiophen-3-ylethynyl)thiophen-2-yl)imidazo[1,2-a]pyridin-3-amine hydrochloride]
 | 230 | Cc1cccnc1C#Cc1ccc(-c2nc3ccccn3c2NC(C)(C)C)s1 [Example 351, N-tert-butyl-2-(5-((3-methylpyridin-2-yl)ethynyl)thiophen-2-yl)imidazo[1,2-a]pyridin-3-amine hydrochloride]

Reference: US7420056B2, “Substituted bicyclic imidazo-3-ylamine compounds” (Gruenenthal GmbH, priority 2004, dated 2008)
